Like-named read-outs stand apart in the source and are kept apart here.
System: recombinant rabies virus 1088 strain expressing Gaussia Luciferase (GLuc) (1088/GLuc)
Format: cell-based

Compound | IC50 (read-out: Anti-rabies activity) | IC50 (read-out: IC50)
O=C(NCCc1ccccc1)[C@@]12C[C@@H]3CN(CC4CCCCC4)[C@@H]([C@@H]3CN1)[C@H]2Cc1cccc2ccccc12 (relative stereo) [IF-718] | < 5 µM | –
NC(=O)CCNC(=O)C12CC3CN(Cc4cccc5ccccc45)C(C3CN1)C2Cc1ccc(O)cc1 (stereo not drawn) [IF-435] | < 5 µM | –
O=C(O)CCNC(=O)[C@]12NC[C@@H]3C[C@H]1CN(CCO)[C@H]2[C@@H]3Cc1cccc2ccccc12 (relative stereo) [IB-610] | 10 to 30 µM | –
O=C(O)CCC1C2C3CNC1(C(=O)NCc1cccc4ccccc14)CC3CN2CC1CCCCC1 (stereo not drawn) [IF-419] | 10 to 30 µM | –
N=C(N)NCCCNC(=O)[C@]12NC[C@@H]3C[C@H]1CN(CC1CCCCC1)[C@H]2[C@@H]3CCc1ccccc1 (relative stereo) [IB-362] | < 5 µM | –
CCCCCCNC(=O)C12NCC3CC1CN(CCO)C2C3CCC(C)C (stereo not drawn) [IB-490] | < 5 µM | –
O=C(NCCO)[C@]12NC[C@@H]3C[C@H]1CN(Cc1ccccc1)[C@H]2[C@@H]3Cc1cccc2ccccc12 (relative stereo) [IB-602] | 10 to 30 µM | –
N=C(N)NCCCNC(=O)[C@@]12C[C@@H]3CN(Cc4cccc5ccccc45)[C@@H]([C@@H]3CN1)[C@H]2Cc1cccc2ccccc12 (relative stereo) [IF-390] | 10 to 30 µM | –
CC(C)CCN1C[C@@H]2C[C@H]3CN[C@]2(C(=O)NCC(C)C)[C@@H]1[C@@H]3CC(C)C (relative stereo) [IB-753] | < 5 µM | –
CC(C)CCN1CC2CC3CNC2(C(=O)NCc2ccccc2)C1C3Cc1ccc(O)cc1 (stereo not drawn) [IB-749] | 10 to 30 µM | –
NC(=O)CCNC(=O)C12NCC3CC1CN(Cc1cccc4ccccc14)C2C3Cc1ccc(O)cc1 (stereo not drawn) [IB-521] | 10 to 30 µM | –
CC(C)CCNC(=O)[C@@]12C[C@@H]3CN(CC4CCCCC4)[C@@H]([C@@H]3CN1)[C@H]2Cc1ccc(O)cc1 (relative stereo) [IF-709] | 10 to 30 µM | –
Cc1ccc(CN2CC3CC4CNC3(C(=O)NCc3ccccc3)C2C4CC(C)C)cc1 (stereo not drawn) [IB-867] | 5 to 10 µM | –
CC(C)C[C@@H]1[C@@H]2[C@@H]3CN[C@@]1(C(=O)NCc1ccc(C(F)(F)F)cc1)C[C@@H]3CN2Cc1ccccc1 (relative stereo) [IF-838] | 10 to 30 µM | –
CC(C)CNC(=O)[C@@]12C[C@@H]3CN(CCc4ccccc4)[C@@H]([C@@H]3CN1)[C@H]2Cc1ccccc1 (relative stereo) [IF-641] | < 5 µM | –
NC(=O)C[C@@H]1[C@@H]2[C@@H]3CN[C@@]1(C(=O)NCCc1ccccc1)C[C@@H]3CN2Cc1ccc(F)cc1 (relative stereo) [IF-269] | 10 to 30 µM | –
NC(=O)CN1C[C@H]2C[C@]3(C(=O)NCc4cccc5ccccc45)NC[C@H]2[C@H]1[C@H]3Cc1ccccc1 (relative stereo) [IF-82] | 10 to 30 µM | –
CC(C)CC[C@@H]1[C@@H]2[C@@H]3CN[C@@]1(C(=O)NCC(C)C)C[C@@H]3CN2Cc1ccccc1 (relative stereo) [IF-411] | < 5 µM | –
CC(C)CC[C@@H]1[C@@H]2[C@@H]3CN[C@@]1(C(=O)NCCc1ccccc1)C[C@@H]3CN2CC1CCCCC1 (relative stereo) [IF-717] | < 5 µM | –
CCOc1ccc(CN2CC3CC4CNC3(C(=O)NCc3ccccc3)C2C4CC(C)C)cc1 (stereo not drawn) [IB-878] | 10 to 30 µM | –
CC(C)CC[C@@H]1[C@@H]2CN[C@@]3(C(=O)NCCCNC(=N)N)[C@@H](C2)CN(CCc2ccccc2)[C@@H]13 (relative stereo) [IB-346] | 10 to 30 µM | –
NC(=O)CN1C[C@H]2C[C@]3(C(=O)NCc4ccc(O)cc4)NC[C@H]2[C@H]1[C@H]3Cc1cccc2ccccc12 (relative stereo) [IF-137] | < 5 µM | –
CC(C)CCN1CC2CC3CNC2(C(=O)NCc2ccccc2)C1C3CC(C)C (stereo not drawn) [IB-876] | 10 to 30 µM | –

Compound | IC50 (read-out: Anti-rabies activity) | IC50 (read-out: IC50)
CCN1C[C@@H]2[C@H]3CN(CC(C)C)[C@@H]2[C@@H](Cc2ccccc2)[C@]1(C(=O)NCc1ccccc1)C3 (relative stereo) [IF-69] | 10 to 30 µM | 16.5 µM
CC(C)CCN1CC2CC3(C(=O)NCc4ccc(O)cc4)NCC2C1C3CCC(=O)O (stereo not drawn) [IF-445] | 10 to 30 µM | –
CC(C)CNC(=O)[C@]12NC[C@@H]3C[C@H]1CN(CC(C)C)[C@H]2[C@@H]3Cc1ccccc1 (relative stereo) [IB-3] | 10 to 30 µM | 19.6 µM
CC(C)CN1C[C@@H]2C[C@H]3CN[C@]2(C(=O)NCCc2ccccc2)[C@@H]1[C@@H]3Cc1ccc(O)cc1 (relative stereo) [IB-536] | 10 to 30 µM | –
CC(C)CC[C@@H]1[C@@H]2[C@@H]3CN[C@@]1(C(=O)NCc1cccc4ccccc14)C[C@@H]3CN2CC(N)=O (relative stereo) [IF-84] | 10 to 30 µM | –
CCCCCCNC(=O)[C@@]12C[C@@H]3CN(CC4CCCCC4)[C@@H]([C@@H]3CN1)[C@H]2Cc1ccc(O)cc1 (relative stereo) [IF-514] | < 5 µM | –
N=C(N)NCCC[C@@H]1[C@@H]2[C@@H]3CN[C@@]1(C(=O)NCc1cccc4ccccc14)C[C@@H]3CN2Cc1ccccc1 (relative stereo) [IF-284] | 10 to 30 µM | –
CC(C)CNC(=O)[C@]12NC[C@@H]3C[C@H]1CN(CCC(=O)O)[C@H]2[C@@H]3Cc1cccc2ccccc12 (relative stereo) [IB-575] | 10 to 30 µM | –
CC(C)CNC(=O)[C@@]12C[C@@H]3CN(CCc4ccccc4)[C@@H]([C@@H]3CN1)[C@H]2CC(C)C (relative stereo) [IF-738] | 10 to 30 µM | –
CC(C)C[C@@H]1[C@@H]2CN[C@@]3(C(=O)NCc4ccccc4)[C@@H](C2)CN(Cc2ccc(F)cc2)[C@@H]13 (relative stereo) [IB-773] | < 5 µM | –
O=C(NCCc1ccccc1)C12NCC3CC1CN(CC1CCCCC1)C2C3Cc1ccccc1 (stereo not drawn) [IB-484] | < 5 µM | –
Cc1ccc(C[C@@H]2[C@@H]3[C@@H]4CN[C@@]2(C(=O)NCc2ccccc2)C[C@@H]4CN3CC(C)C)cc1 (relative stereo) [IF-14] | 10 to 30 µM | 14.1 µM
CCCCCCNC(=O)[C@]12NC[C@@H]3C[C@H]1CN(CC(N)=O)[C@H]2[C@@H]3Cc1ccccc1 (relative stereo) [IB-105] | 10 to 30 µM | –
O=C(O)CCNC(=O)C12NCC3CC1CN(Cc1ccc(F)cc1)C2C3Cc1cccc2ccccc12 (stereo not drawn) [IB-384] | 10 to 30 µM | –
CC(C)CC[C@@H]1[C@@H]2[C@@H]3CN[C@@]1(C(=O)NCCO)C[C@@H]3CN2Cc1cccc2ccccc12 (relative stereo) [IF-613] | 10 to 30 µM | –
CCCCCCNC(=O)[C@@]12C[C@@H]3CN(CCC(C)C)[C@@H]([C@@H]3CN1)[C@H]2Cc1ccccc1 (relative stereo) [IF-599] | 10 to 30 µM | –
CC(C)CC[C@@H]1[C@@H]2CN[C@@]3(C(=O)NCCC(N)=O)[C@@H](C2)CN(CCc2ccccc2)[C@@H]13 (relative stereo) [IB-342] | 10 to 30 µM | –
CC(C)CCNC(=O)[C@]12NC[C@@H]3C[C@H]1CN(CC(N)=O)[C@H]2[C@@H]3CCc1ccccc1 (relative stereo) [IB-102] | < 5 µM | –
CC(C)CCN1C[C@@H]2C[C@H]3CN[C@]2(C(=O)NCc2ccc(O)cc2)[C@@H]1[C@@H]3CCc1ccccc1 (relative stereo) [IB-576] | 10 to 30 µM | –
CC(C)CCNC(=O)[C@]12NC[C@@H]3C[C@H]1CN(CC(C)C)[C@H]2[C@@H]3Cc1ccc(O)cc1 (relative stereo) [IB-684] | 10 to 30 µM | –
CC(C)CN1CC2CC3CNC2(C(=O)NCCC(N)=O)C1C3Cc1cccc2ccccc12 (stereo not drawn) [IB-737] | 10 to 30 µM | –
Cc1ccc(CN2CC3CC4CN(C(=O)OCC(C)C)C3(C(=O)NCc3ccccc3)C2C4CC(C)C)cc1 (stereo not drawn) [IB-886] | 5 to 10 µM | –
